The text below walks through data of patent US20030013685A1, “Process for increasing the egg production and strengthening the eggshells of poultry” (priority 2000, published 2003).

Molecules are shown by their SMILES. Like-named read-outs stand apart in the source and are kept apart here.

For one data set, the system named is laying hens. Particulars: cited from earlier work.
Data set [1] relates to hens of ISA Brown strain. Description: Laying parameters of hens after a single subcutaneous administration of tiludronic acid (disodium tiludronate) before onset of laying. Type of data set: in vivo, hen. Particulars: for Age of onset of laying: hens monitored up to 55 weeks old; for Average number of eggs laid per hen and per week / Average total number of eggs laid per hen: from onset of laying up to 55 weeks old. As for the experimental part:
(§1) A total number of 216 hens of ISA Brown strain between 15 and 17 weeks old was divided into 3 groups for the purpose of evaluating the effects on the production of eggs of a single subcutaneous administration of tiludronic acid, in the form of its sodium salt (disodium tiludronate).
(§2) Three doses were compared: 0, 1 and 10 mg/kg (corresponding amount of tiludronic acid/kg). The tiludronic acid was administered in the form of injectable aqueous solutions such that the volume injected per bird was 1 ml per kilo of live weight. The tiludronic acid solutions were thus concentrated to 0.1% and 1% for the doses of 1 and 10 mg/kg, respectively. The control group received a placebo corresponding to water for an injectable preparation. The injections were performed subcutaneously in the region above the superficial pectoral muscle.
The hens were housed in individual cages in the same building at controlled temperature and hygrometry. Each animal was identified by a number carried on a ring attached to a wing. They received the same standard feed for laying hens, freely throughout the duration of the study. Drinking water was also distributed freely.
The average age of onset of laying for the hens in this strain is 20 weeks, with extremes of between 18 and 23 weeks. Consequently, for the hens of this study, the average delay between the treatment and the age of onset of laying had to be from 3 to 5 weeks. The duration of the study was 40 weeks. At the end of the study, the hens were 55 weeks old.
The other half of the total number of hens was monitored in order to collect the following laying parameters: age on laying the first egg and total number of eggs laid up to 55 weeks old. For each group, the average number of eggs laid per hen and per week was calculated over the entire laying period and week by week, in order to establish the laying curves.
(§3) The “age of onset of laying”, “total number of eggs laid per hen”, “number of eggs laid per hen and per week over the entire laying period”, “mechanical strength of the shell”, “thickness of the shell” and “medullary bone volume” criteria were compared by means of a single-factor variance analysis (dose factor).

The subject of data set [2] is hens of ISA Brown strain. Description: Mechanical strength of the eggshell by quasi-static compression. To be noted: for Mechanical strength of the shell at 23 weeks: 23 weeks old; for Mechanical strength of the shell at 54 weeks: 54 weeks old. Format: in vivo, hen. As for the experimental part:
as §1, §2
(§4) Moreover, an analysis of the mechanical strength of the shell and the thickness of the mineralized part of the shell was carried out using a sample of 12 hens at the following two dates of maturity: at 23 weeks old (i.e. at the start of laying) and at 54 weeks old. The strength of the shell was measured quantitatively by a technique of quasi-static compression of the eggshell. The thickness of the shell was measured from images obtained with an electron microscope.
as §3

The test system of data set [3] is hens of ISA Brown strain. Nature of the data set: Thickness of the mineralized part of the shell from electron microscope images. Type of data set: in vivo, hen. To be noted: for Thickness of the mineralized part of the shell at 23 weeks: 23 weeks old; for Thickness of the mineralized part of the shell at 54 weeks: 54 weeks old. As for the experimental part:
as §1, §2, §4, §3

Data set [4] has as its system hens of ISA Brown strain. Description: Histomorphometric examination of tarsometatarsal bone (medullary bone volume). Type of data set: in vivo, hen. To be noted: for Multiplication factor of medullary bone volume: onset of laying to 55 weeks old. As for the experimental part: as §1, §2
One half of the total number of hens was sacrificed on laying the first egg, in order to carry out a histomorphometric examination. This examination was performed on one of the two tarsometatarsal bones.
At 55 weeks old, all the animals were sacrificed and a histomorphometric examination of one of the tarsometatarsal bones was performed under the same conditions as on the bones of the hens sacrificed on laying of the first egg.
as §3

Setting [5] is: treated groups, laying curves FIG. 1 and 2.

In the case of `NCCCC(O)(P(=O)(O)O)P(=O)(O)O` [alendronate, [4-amino-1-hydroxybutylidene] bisphosphonate], the Effect on laying entry is “complete stoppage of laying” with laying hens (1 mg/kg subcutaneously every 2 days for 2 weeks, about 18 weeks after onset of laying, within a few days) and “reduction, or even the stopping, of laying” in the data set with laying hens (0.01, 0.1 or 1 mg/kg during laying). Besides, in the data set on laying hens (administration during laying, more pronounced the higher the dose), the “Effect on the quality of the shell” value was “adverse change in the quality of the shell”.

Take `O=P(O)(O)C(Sc1ccc(Cl)cc1)P(=O)(O)O` [tiludronic acid, 4-chlorophenylthiomethylenebisphosphonic acid]: in the data set on hens of ISA Brown strain [1] (1 mg/kg), the “Total number of eggs laid per hen versus control group (2-by-2 analysis)” value is “significantly higher”; the “Average number of eggs laid per hen and per week” value was 6.53 ± 0.27; the “Average total number of eggs laid per hen” value was found to be 221.6 ± 11.2. Moreover, the “Age of onset of laying” value in the data set on hens of ISA Brown strain [1] (1 mg/kg single subcutaneous dose) is 148.3 ± 7.8 days. In the data set with hens of ISA Brown strain [1] (1 mg/kg, no significant difference (p=0.11)), the “Start of laying on average after the hens of the other 2 groups” value worked out at 3 days. In the data set with hens of ISA Brown strain [1] (10 mg/kg single subcutaneous dose), the “Age of onset of laying” value is on record as 145.1 ± 8.8 days. Further, in the data set with hens of ISA Brown strain [1] (10 mg/kg), the “Average number of eggs laid per hen and per week” value is given as 6.39 ± 0.34; the “Average total number of eggs laid per hen” value worked out at 219.8 ± 12.6. For the same compound, in the data set with hens of ISA Brown strain [1] (setting [5]), the “Laying peak compared with control group” value is listed as “higher” and the “Slope of the laying curve compared with controls” value is recorded as “substantially smaller”. Further, the “Change in the age of onset of laying” value with hens of ISA Brown strain [1] (treatment with tiludronic acid, 1 and 10 mg/kg) is on record as “did not result in any change”. In addition, in the data set on hens of ISA Brown strain [2] (1 mg/kg), the “Mechanical strength of the shell at 23 weeks” value was 39.3 ± 5.2 N and the “Mechanical strength of the shell at 54 weeks” value is recorded as 28.3 ± 4.9 N. In the data set on hens of ISA Brown strain [2] (10 mg/kg), the “Mechanical strength of the shell at 23 weeks” value worked out at 41.5 ± 6.3 N and the “Mechanical strength of the shell at 54 weeks” value is reported as 30.3 ± 6.1 N. The “Loss of mechanical strength of the eggshells between the two maturity dates of measurement” value in the data set on hens of ISA Brown strain [2] (two treated groups (1 and 10 mg/kg), between 23 and 54 weeks) is “about −28%”. Further, in the data set with hens of ISA Brown strain [3] (1 mg/kg), the “Thickness of the mineralized part of the shell at 23 weeks” value came out at 0.256 ± 0.025 mm and the “Thickness of the mineralized part of the shell at 54 weeks” value is recorded as 0.267 ± 0.026 mm. Besides, in the data set on hens of ISA Brown strain [3] (10 mg/kg), the “Thickness of the mineralized part of the shell at 23 weeks” value was 0.272 ± 0.013 mm and the “Thickness of the mineralized part of the shell at 54 weeks” value was 0.273 ± 0.021 mm. Further, in the data set with hens of ISA Brown strain [4] (1 mg/kg), the “Volume of medullary bone of the tarsometatarsal bone at 55 weeks old” value turned out to be 2.75 ± 2.72%, the “Volume of medullary bone of the tarsometatarsal bone at the onset of laying” value is listed as 0.31 ± 0.53% and the “Multiplication factor of medullary bone volume” value is listed as 9. In addition, in the data set with hens of ISA Brown strain [4] (10 mg/kg), the “Volume of medullary bone of the tarsometatarsal bone at 55 weeks old” value is on record as 3.53 ± 3.04%, the “Volume of medullary bone of the tarsometatarsal bone at the onset of laying” value came out at 0.26 ± 0.33% and the “Multiplication factor of medullary bone volume” value came out at 13.
